Tests used:
[1] = in vitro; assay type: cell-based; conditions: African green monkey, CC50
Protocol: (§1) In parallel, the toxicity of the compounds was assessed on the same plates. Once the read-out for the eGFP signal was done, 10 μL of resazurin, a cell viability stain, was added to all wells of the 384-well plates. The resazurin assay is based on the reduction of the blue resazurin by NADH, produced by the cells, into the highly fluorescent product, resorufin. The formation of pink fluorescent resorufin is directly related to the number of viable cells in the well. The plates were incubated for an additional 5 hours in a fully humidified incubator (37° C., 5% CO2). Next, the plates were measured on an Infinite reader (Tecan) using an excitation wavelength of 530 nm. The half maximal cytotoxic concentration (CC50) was also determined, defined as the concentration required to reduce the resazurin conversion by 50% compared to that of the cell control wells. Finally, the selectivity index (SI) was determined for the compounds, which was calculated as followed: SI=CC50/EC50.

[2] = system: DENV-2 16681 strain; assay: DENV-2 antiviral assay (eGFP-labeled virus in Vero cells); assay type: cell-based, Dengue virus; conditions: DENV-2 16681 eGFP, MOI 0.5, 3 days
Protocol: The antiviral activity of all the compounds of the invention was tested against DENV-2 16681 strain which was labeled with enhanced green fluorescent protein (eGPF; Table 1). The culture medium consists of minimal essential medium supplemented with 2% of heat-inactivated fetal calf serum, 0.04% gentamycin (50 mg/mL) and 2 mM of L-glutamine. Vero cells, obtained from ECACC, were suspended in culture medium and 25 μL was added to 384-well plates (2500 cells/well), which already contain the antiviral compounds. Typically, these plates contain a 4-fold serial dilution of 9 dilution steps of the test compound at 200 times the final concentration in 100% DMSO (200 nL). In addition, each compound concentration is tested in quadruplicate (final concentration range: 25 μM-0.00038 μM). Finally, each plate contains wells which are assigned as virus controls (containing cells and virus in the absence of compound), cell controls (containing cells in the absence of virus and compound) and medium controls (containing medium in the absence of cells, virus and compounds). To the wells assigned as medium control, 25 μL of culture medium was added instead of Vero cells. Once the cells were added to the plates, the plates were incubated for 30 minutes at room temperature to allow the cells to distribute evenly within the wells. Next, the plates were incubated in a fully humidified incubator (37° C., 5% CO2) until the next day. Then, DENV-2 strain 16681, labeled with eGFP, was added at a multiplicity of infection (MOI) of 0.5. Therefore, 15 μL of virus suspension was added to all the wells containing test compound and to the wells assigned as virus control. In parallel, 15 μL of culture medium was added to the medium and cell controls. Next, the plates were incubated for 3 days in a fully humidified incubator (37° C., 5% CO2). At the day of the read out, the eGFP fluorescence was measured using an automated fluorescence microscope at 488 nm (blue laser). Using an in-house LIMS system, inhibition dose response curves for each compound were calculated and the half maximal effective concentration (EC50) was determined. Therefore, the percent inhibition (I) for every test concentration is calculated using the following formula: I=100*(ST−SCC)/(SVC−SCC); ST, SCC and SVC are the amount of eGFP signal in the test compound, cell control and virus control wells, respectively. The EC50 represents the concentration of a compound at which the virus replication is inhibited with 50%, as measured by a 50% reduction of the eGFP fluorescent intensity compared to the virus control. The EC50 is calculated using linear interpolation.

[3] = system: Vero cells; assay: in vitro; assay type: cell-based; conditions: African green monkey
Protocol: as §1

COc1cc(NC(C(=O)c2c[nH]c3cc(F)ccc23)c2ccc(F)cc2OC)cc(S(C)(=O)=O)c1 (racemic) [Compound 1, 1-(6-fluoro-1H-indol-3-yl)-2-(4-fluoro-2-methoxyphenyl)-2-((3-methoxy-5-(methylsulfonyl)phenyl)amino)ethanone]
CC50 [1]: 9900 nM | EC50 ([2]; Dengue virus, DENV2, Vero, 72 h): 2 nM

COc1cc(NC(C(=O)c2c[nH]c3cc(F)ccc23)c2ccc(F)cc2OC)cc(S(C)(=O)=O)c1 (single isomer, unassigned) [Enantiomer 1B, 1-(6-fluoro-1H-indol-3-yl)-2-(4-fluoro-2-methoxyphenyl)-2-((3-methoxy-5-(methylsulfonyl)phenyl)amino)ethanone]
CC50 [3]: 12000 nM | EC50 ([2]; listed as 1B): 50 nM

COc1cc(NC(C(=O)c2c[nH]c3c(C)c(F)ccc23)c2ccc(F)cc2OC)cc(S(C)(=O)=O)c1 (single isomer, unassigned) [Enantiomer 2B, 2-(4-fluoro-2-methoxyphenyl)-1-(6-fluoro-7-methyl-1H-indol-3-yl)-2-((3-methoxy-5-(methylsulfonyl)phenyl)amino)ethanone]
CC50 [3]: 8000 nM | EC50 ([2]; listed as 2B): 55 nM

COc1cc(NC(C(=O)c2c[nH]c3c(C)c(Cl)ccc23)c2ccc(F)cc2OC)cc(S(C)(=O)=O)c1 (single isomer, unassigned) [Enantiomer 3B, 1-(6-chloro-7-methyl-1H-indol-3-yl)-2-(4-fluoro-2-methoxyphenyl)-2-((3-methoxy-5-(methylsulfonyl)phenyl)amino)ethanone]
CC50 [3]: 11000 nM | EC50 ([2]; listed as 3B): 32 nM

COc1cc(NC(C(=O)c2c[nH]c3cc(Cl)ccc23)c2ccc(F)cc2OC)cc(S(C)(=O)=O)c1 (single isomer, unassigned) [Enantiomer 4B, 1-(6-chloro-1H-indol-3-yl)-2-(4-fluoro-2-methoxyphenyl)-2-((3-methoxy-5-(methylsulfonyl)phenyl)amino)ethanone]
CC50 [3]: 16000 nM | EC50 ([2]; listed as 4B): 18 nM

COc1cc(NC(C(=O)c2c[nH]c3c(F)cc(C)cc23)c2ccc(F)cc2OC)cc(S(C)(=O)=O)c1 (single isomer, unassigned) [Enantiomer 6B, 2-(4-fluoro-2-methoxyphenyl)-1-(7-fluoro-5-methyl-1H-indol-3-yl)-2-((3-methoxy-5-(methylsulfonyl)phenyl)amino)ethanone]
CC50 [3]: 12000 nM | EC50 ([2]; listed as 6B): 200 nM

COc1cc(NC(C(=O)c2c[nH]c3cc(F)c(F)cc23)c2ccc(F)cc2OC)cc(S(C)(=O)=O)c1 (single isomer, unassigned) [Enantiomer 7B, 1-(5,6-difluoro-1H-indol-3-yl)-2-(4-fluoro-2-methoxyphenyl)-2-((3-methoxy-5-(methylsulfonyl)phenyl)amino)ethanone]
CC50 [3]: 9600 nM | EC50 ([2]; listed as 7B): 43 nM

COc1cc(NC(C(=O)c2c[nH]c3c(C)cc(F)cc23)c2ccc(F)cc2OC)cc(S(C)(=O)=O)c1 (single isomer, unassigned) [Enantiomer 8B, 2-(4-fluoro-2-methoxyphenyl)-1-(5-fluoro-7-methyl-1H-indol-3-yl)-2-((3-methoxy-5-(methylsulfonyl)phenyl)amino)ethanone]
CC50 [3]: 11000 nM | EC50 ([2]; listed as 8B): 240 nM

COc1cc(NC(C(=O)c2c[nH]c3cc(C)c(F)cc23)c2ccc(F)cc2OC)cc(S(C)(=O)=O)c1 (single isomer, unassigned) [Enantiomer 9B, 2-(4-fluoro-2-methoxyphenyl)-1-(5-fluoro-6-methyl-1H-indol-3-yl)-2-((3-methoxy-5-(methylsulfonyl)phenyl)amino)ethanone]
CC50 [3]: 21000 nM | EC50 ([2]; listed as 9B): 98 nM

COc1cc(NC(C(=O)c2c[nH]c3cc(OC)c(C)cc23)c2ccc(F)cc2OC)cc(S(C)(=O)=O)c1 (single isomer, unassigned) [Enantiomer 10A, 2-(4-fluoro-2-methoxyphenyl)-2-((3-methoxy-5-(methylsulfonyl)phenyl)amino)-1-(6-methoxy-5-methyl-1H-indol-3-yl)ethanone]
CC50 [3]: 18000 nM | EC50 ([2]; listed as 10A): 54 nM

COc1cc(NC(C(=O)c2c[nH]c3cc(OC)c(F)cc23)c2ccc(F)cc2OC)cc(S(C)(=O)=O)c1 (single isomer, unassigned) [Enantiomer 11B, 2-(4-fluoro-2-methoxyphenyl)-1-(5-fluoro-6-methoxy-1H-indol-3-yl)-2-((3-methoxy-5-(methylsulfonyl)phenyl)amino)ethanone]
CC50 [3]: > 25000 nM | EC50 ([2]; listed as 11B): 55 nM

COc1cc(NC(C(=O)c2c[nH]c3c(Cl)c(OC)ccc23)c2ccc(F)cc2OC)cc(S(C)(=O)=O)c1 (single isomer, unassigned) [Enantiomer 12B, 1-(7-chloro-6-methoxy-1H-indol-3-yl)-2-(4-fluoro-2-methoxyphenyl)-2-((3-methoxy-5-(methylsulfonyl)phenyl)amino)ethanone]
CC50 [3]: > 25000 nM | EC50 ([2]; listed as 12B): 21 nM

COc1cc(NC(C(=O)c2c[nH]c3cc(F)c(C)cc23)c2ccc(F)cc2OC)cc(S(C)(=O)=O)c1 (single isomer, unassigned) [Enantiomer 14B, 2-(4-fluoro-2-methoxyphenyl)-1-(6-fluoro-5-methyl-1H-indol-3-yl)-2-((3-methoxy-5-(methylsulfonyl)phenyl)amino)ethanone]
CC50 [3]: 11000 nM | EC50 ([2]; listed as 14B): 41 nM

COc1cc(NC(C(=O)c2c[nH]c3ccc(C)cc23)c2ccc(F)cc2OC)cc(S(C)(=O)=O)c1 (single isomer, unassigned) [Enantiomer 15B, 2-(4-fluoro-2-methoxyphenyl)-2-((3-methoxy-5-(methylsulfonyl)phenyl)amino)-1-(5-methyl-1H-indol-3-yl)ethanone]
CC50 [3]: 17000 nM | EC50 ([2]; listed as 15B): 73 nM

COc1cc(NC(C(=O)c2c[nH]c3cc(OC)c(Cl)cc23)c2ccc(F)cc2OC)cc(S(C)(=O)=O)c1 (single isomer, unassigned) [Enantiomer 16B, 1-(5-chloro-6-methoxy-1H-indol-3-yl)-2-(4-fluoro-2-methoxyphenyl)-2-((3-methoxy-5-(methylsulfonyl)phenyl)amino)ethanone]
CC50 [3]: 22000 nM | EC50 ([2]; listed as 16B): 13 nM

COc1cc(NC(C(=O)c2c[nH]c3ccc(C(F)(F)F)cc23)c2ccc(F)cc2OC)cc(S(C)(=O)=O)c1 (single isomer, unassigned) [Enantiomer 17A, 2-(4-fluoro-2-methoxyphenyl)-2-((3-methoxy-5-(methylsulfonyl)phenyl)amino)-1-(5-(trifluoromethyl)-1H-indol-3-yl)ethanone]
CC50 [3]: 14000 nM | EC50 ([2]; listed as 17A): 38 nM

COc1cc(NC(C(=O)c2c[nH]c3ccc(OC(F)(F)F)cc23)c2ccc(F)cc2OC)cc(S(C)(=O)=O)c1 (single isomer, unassigned) [Enantiomer 18B, 2-(4-fluoro-2-methoxyphenyl)-2-((3-methoxy-5-(methylsulfonyl)phenyl)amino)-1-(5-(trifluoromethoxy)-1H-indol-3-yl)ethanone]
CC50 [3]: 10000 nM | EC50 ([2]; listed as 18B): 9.2 nM

Source: US10029984B2, “Mono- or di-substituted indole derivatives as dengue viral replication inhibitors” (Janssen Pharmaceuticals, Inc., priority 2015, dated 2018)
